biological target: ALK tyrosine kinase receptor (Homo sapiens, UniProt Q9UM73); assay: Inhibition Assay: 1× Kinase Buffer 50 mM HEPES. pH 7.5 0.0015% Brij-35 10 mM MgCl2 2 mM DTT 2) stop buffer 100 mM HEPES, pH 7.5 0.015% Brij-35 0.2% Coating Reagent #3 50 mM EDTAPrepare a Compound Solution to be Tested Step 2.1 Dilute the compound to 50× of the final desired highest inhibitor concentration in reaction by 100% DMSO. Transfer 100 μl of this compound dilution to a well in a 96-well plate. For example, if desired highest inhibitor concentration is 1 μM, then prepare 50 μM of compound DMSO solution in this step.
Sequence (Q9UM73 whole entry): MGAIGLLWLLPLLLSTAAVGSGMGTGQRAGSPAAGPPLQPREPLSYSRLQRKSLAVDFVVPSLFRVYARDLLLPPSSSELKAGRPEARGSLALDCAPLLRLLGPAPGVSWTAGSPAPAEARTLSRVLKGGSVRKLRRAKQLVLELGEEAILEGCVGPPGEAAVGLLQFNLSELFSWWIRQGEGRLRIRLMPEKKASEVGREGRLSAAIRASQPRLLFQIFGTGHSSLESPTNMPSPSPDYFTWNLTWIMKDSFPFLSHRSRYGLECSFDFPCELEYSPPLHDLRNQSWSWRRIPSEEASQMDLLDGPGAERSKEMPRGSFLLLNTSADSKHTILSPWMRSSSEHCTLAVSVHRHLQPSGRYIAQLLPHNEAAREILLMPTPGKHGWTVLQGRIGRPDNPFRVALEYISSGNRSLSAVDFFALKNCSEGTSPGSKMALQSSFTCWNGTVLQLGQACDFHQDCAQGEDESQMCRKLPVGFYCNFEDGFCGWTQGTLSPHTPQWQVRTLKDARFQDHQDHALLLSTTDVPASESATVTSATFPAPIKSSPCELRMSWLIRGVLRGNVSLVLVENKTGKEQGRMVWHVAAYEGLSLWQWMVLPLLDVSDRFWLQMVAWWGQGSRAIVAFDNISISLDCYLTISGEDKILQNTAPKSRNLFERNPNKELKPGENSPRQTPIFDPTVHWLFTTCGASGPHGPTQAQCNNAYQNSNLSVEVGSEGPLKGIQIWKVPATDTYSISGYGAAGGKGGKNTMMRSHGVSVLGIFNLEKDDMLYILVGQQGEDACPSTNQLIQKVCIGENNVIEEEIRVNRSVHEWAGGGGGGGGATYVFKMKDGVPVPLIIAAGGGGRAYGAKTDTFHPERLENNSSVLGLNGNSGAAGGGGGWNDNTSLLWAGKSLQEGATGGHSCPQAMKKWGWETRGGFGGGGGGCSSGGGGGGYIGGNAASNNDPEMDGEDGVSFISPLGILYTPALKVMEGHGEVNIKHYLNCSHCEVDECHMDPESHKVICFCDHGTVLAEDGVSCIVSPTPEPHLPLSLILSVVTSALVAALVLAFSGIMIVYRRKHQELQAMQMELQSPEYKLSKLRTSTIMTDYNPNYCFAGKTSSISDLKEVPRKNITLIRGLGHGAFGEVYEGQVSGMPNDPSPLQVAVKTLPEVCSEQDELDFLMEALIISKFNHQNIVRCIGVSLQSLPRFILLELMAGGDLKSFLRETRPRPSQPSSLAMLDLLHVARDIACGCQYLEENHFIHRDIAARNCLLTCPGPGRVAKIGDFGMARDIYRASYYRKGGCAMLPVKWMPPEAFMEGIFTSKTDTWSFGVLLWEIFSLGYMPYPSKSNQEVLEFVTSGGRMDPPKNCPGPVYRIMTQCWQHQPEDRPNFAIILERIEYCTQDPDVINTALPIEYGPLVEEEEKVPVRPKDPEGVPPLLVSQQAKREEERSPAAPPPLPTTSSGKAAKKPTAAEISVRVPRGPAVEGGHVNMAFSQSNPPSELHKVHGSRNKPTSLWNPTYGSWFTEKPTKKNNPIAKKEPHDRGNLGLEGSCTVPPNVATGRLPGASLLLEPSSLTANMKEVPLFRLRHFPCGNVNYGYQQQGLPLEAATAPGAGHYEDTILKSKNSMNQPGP

IC50 [nM]	Structure (SMILES)
< 1	COc1cc(N2CCC(O)CC2)ccc1Nc1ncc(Cl)c(Nc2ccsc2S(=O)(=O)C(C)C)n1
< 1	COc1cc(N2CCN(C)CC2)ccc1Nc1ncc(Cl)c(Nc2ccsc2S(=O)(=O)C(C)C)n1
< 1	COc1cc(N2CCN(C)CC2)ccc1Nc1ncc(Cl)c(Nc2ccccc2S(=O)(=O)C(C)C)n1
< 1	COc1cc(N2CCOCC2)ccc1Nc1ncc(Cl)c(Nc2ccsc2S(=O)(=O)C(C)C)n1
< 1	CC(C)S(=O)(=O)c1ccccc1Nc1nc(Nc2ccc(N3CCC(N(C)C)CC3)cc2OC(F)F)ncc1Cl
< 1	COc1cc(N2CCC(N3CCC(N(C)C)CC3)CC2)ccc1Nc1ncc(Cl)c(Nc2ccccc2S(=O)(=O)C(C)C)n1
< 1	COc1cc(N2CCC(N3CCOCC3)CC2)ccc1Nc1ncc(Cl)c(Nc2ccsc2S(=O)(=O)C(C)C)n1
< 1	COc1cc(N2CCC(N(C)C)CC2)ccc1Nc1ncc(Cl)c(Nc2ccccc2S(=O)(=O)C(C)C)n1
< 1	COc1cc(N2CCC(N(C)C)CC2)ccc1Nc1ncc(Cl)c(Nc2ccsc2S(=O)(=O)C(C)C)n1
